# Test results as given in ChEMBL document CHEMBL3997761 (Medchemcomm, 2016).
# Calls of active or inactive are those of the source. No cut-off for these calls is given here.
# Key:
# CCRF S-180 [1] = test: Antitumor activity against mouse S180 cells implanted in ICR mouse assessed as decrease in tumor weight at 2 umol/kg, ip administered daily for 10 days and measured 24 hrs post last dose; assay type: functional, organism-based
# [2] = Induction of nanoparticle formation in ultrapure water by transmission electron microscopic method
# HL-60 = test: Antiproliferative activity against human HL60 cells after 48 hrs by MTT assay; assay type: functional, cell-based; conditions: HL-60, 48 h
# [3] = Drug uptake in nucleus of human HeLa cells at 40 uM by fluorescence microscopy; assay type: ADME, cell-based; conditions: TDE = time-dependent effect
# [4] = Induction of nanoparticle formation in ultrapure water assessed as nanoparticle size at 1 uM by transmission electron microscopic method
# HeLa = test: Antiproliferative activity against human HeLa cells after 48 hrs by MTT assay; assay type: functional, cell-based
# [5] = Induction of nanoparticle solid formation assessed as nanoparticle size at 0.1 uM by scanning electron microscopic method
# [6] = Induction of nanoparticle formation in ultrapure water assessed as nanoparticle size at 10 uM by transmission electron microscopic method
# K562 [7] = test: Induction of apoptosis in human K562 cells assessed as late apoptotic cells at 10 uM after 24 hrs by Annexin V-FITC/propidium iodide staining based flow cytometry (reference value: 1.9%); assay type: functional
# [8] = Induction of nanoparticle formation in ultrapure water assessed as nanoparticle size at 0.1 uM by transmission electron microscopic method
# Mus musculus [9] = test: Antiinflammatory activity in xylene induced ICR mouse ear edema model assessed as decrease in serum IL2 level at 1 umol/kg, po pretreated for 30 mins followed by xylene administration measured after 2 hrs by ELISA; assay type: functional, organism-based
# HCT-8 = test: Antiproliferative activity against human HCT8 cells after 48 hrs by MTT assay; assay type: functional, cell-based; conditions: HCT-8, 48 h
# Mus musculus [10] = test: Downregulation of P-selectin expression in ip dosed ICR mouse serum implanted with mouse S180 cells by ELISA; assay type: functional, organism-based
# K562 [11] = test: Induction of apoptosis in human K562 cells assessed as live cells at 10 uM after 12 hrs by Annexin V-FITC/propidium iodide staining based flow cytometry (reference value: 91.6%); assay type: functional
# Mus musculus [12] = test: Antiinflammatory activity in xylene induced ICR mouse ear edema model assessed as decrease in serum TNFalpha level at 1 umol/kg, po pretreated for 30 mins followed by xylene administration measured after 2 hrs by ELISA; assay type: functional, organism-based
# [13] = Induction of nanoparticle formation in ultrapure water assessed as Farady-Tyndall effect at 1 uM under 650 nanometer laser beam irradiation
# CCRF S-180 [14] = test: Potency index, ratio of compound effect to doxorubicin effect for antitumor activity against mouse S180 cells implanted in ICR mouse assessed as decrease in tumor weight; assay type: functional
# K562 [15] = test: Induction of apoptosis in human K562 cells assessed as necrotic cells at 10 uM after 12 hrs by Annexin V-FITC/propidium iodide staining based flow cytometry (reference value: 0.6%); assay type: functional
# K562 [16] = test: Induction of apoptosis in human K562 cells assessed as early apoptotic cells at 10 uM after 24 hrs by Annexin V-FITC/propidium iodide staining based flow cytometry (reference value: 3.2%); assay type: functional
# Mus musculus [17] = test: Antiinflammatory activity in ICR mouse assessed as inhibition of xylene-induced ear edema at 1 umol/kg, po pretreated for 30 mins followed by xylene administration measured after 2 hrs relative to control; assay type: functional, organism-based
# K562 [18] = test: Induction of apoptosis in human K562 cells at 10 uM by Annexin V-FITC/propidium iodide staining based flow cytometry; assay type: functional, cell-based; conditions: TDE = time-dependent effect
# [19] = Induction of nanoparticle solid formation by scanning electron microscopic method
# K562 [20] = test: Induction of apoptosis in human K562 cells assessed as live cells at 10 uM after 24 hrs by Annexin V-FITC/propidium iodide staining based flow cytometry (reference value: 94.3%); assay type: functional
# [21] = Induction of nanoparticle formation in ultrapure water assessed as nanoparticle size at 1 uM under 650 nanometer laser beam irradiation
# [22] = Induction of nanoparticle solid formation assessed as nanoparticle size at 1 uM by scanning electron microscopic method
# Bos taurus [23] = species: Bos taurus; test: Binding affinity to calf thymus DNA assessed as fluorescence quenching by measuring bathochromic shift by spectrofluorometric method
# Mus musculus [24] = test: Potency index, ratio of compound effect to aspirin effect for antiinflammatory activity in ICR mouse assessed as inhibition of xylene-induced ear edema; assay type: functional
# Plasma [25] = test: Induction of nanoparticle formation in rat plasma assessed as nanoparticle size at 10 uM by atomic force microscopy; assay type: cell-free
# CCRF S-180 [26] = test: Antitumor activity against mouse S180 cells implanted in ICR mouse assessed as decrease in tumor size at 0.01 to 1 umol/kg, ip administered daily for 10 days and measured 24 hrs post last dose; assay type: functional, organism-based
# K562 [27] = test: Induction of apoptosis in human K562 cells assessed as necrotic cells at 10 uM after 24 hrs by Annexin V-FITC/propidium iodide staining based flow cytometry (reference value: 0.6%); assay type: functional
# [28] = Drug uptake in nucleus of human HT-29 cells at 40 uM by fluorescence microscopy; assay type: ADME; conditions: TDE = time-dependent effect
# Plasma [29] = test: Induction of nanoparticle formation in rat plasma by atomic force microscopy; assay type: cell-free
# K562 [30] = test: Induction of apoptosis in human K562 cells assessed as early apoptotic cells at 10 uM after 12 hrs by Annexin V-FITC/propidium iodide staining based flow cytometry (reference value: 5.1%); assay type: functional
# Bos taurus [31] = species: Bos taurus; test: Binding affinity to calf thymus DNA by UV spectrum analysis
# K562 [32] = test: Induction of apoptosis in human K562 cells assessed as late apoptotic cells at 10 uM after 12 hrs by Annexin V-FITC/propidium iodide staining based flow cytometry (reference value: 1.7%); assay type: functional
# Plasma [33] = test: Induction of nanoparticle formation in rat plasma assessed as nanoparticle size at 0.1 uM by atomic force microscopy; assay type: cell-free
# A549 = test: Antiproliferative activity against human A549 cells after 48 hrs by MTT assay; assay type: functional, cell-based; conditions: A549, 48 h
# [34] = Drug uptake in nucleus of human SH-SY5Y cells at 40 uM by fluorescence microscopy; assay type: ADME; conditions: TDE = time-dependent effect
# Plasma [35] = test: Induction of nanoparticle formation in rat plasma assessed as nanoparticle size at 1 uM by atomic force microscopy; assay type: cell-free
# Mus musculus [36] = test: Downregulation of TNFalpha levels in ip dose ICR mouse serum implanted with mouse S180 cells by ELISA; assay type: functional, organism-based
# [37] = Induction of nanoparticle formation in ultrapure water assessed as Farady-Tyndall effect at 1 uM
# CCRF S-180 [38] = test: Antitumor activity against mouse S180 cells implanted in ICR mouse assessed as decrease in tumor weight administered intraperitoneally daily for 10 days and measured after 24 hrs last dose; assay type: functional
# SH-SY5Y = test: Antiproliferative activity against human SH-SY5Y cells after 48 hrs by MTT assay; assay type: functional, cell-based
# HT-29 = test: Antiproliferative activity against human HT-29 cells after 48 hrs by MTT assay; assay type: functional, cell-based; conditions: HT-29, 48 h
# Bos taurus [39] = species: Bos taurus; test: Binding affinity to calf thymus DNA by CD spectrum analysis
# [40] = Induction of nanoparticle solid formation assessed as nanoparticle size at 10 uM by scanning electron microscopic method
# K562 [41] = test: Antiproliferative activity against human K562 cells after 48 hrs by MTT assay; assay type: functional, cell-based; conditions: K562, 48 h
# [42] = Induction of nanoparticle formation in ultrapure water assessed as zeta potential at 1 uM under 650 nanometer laser beam irradiation
# Mus musculus [43] = test: Antiinflammatory activity in ICR mouse assessed as inhibition of xylene-induced ear edema at 16.7 umol/kg, po pretreated for 30 mins followed by xylene administration measured after 2 hrs relative to control; assay type: functional, organism-based
structure (smiles),measurement,setting,value
COc1cccc2c1C(=O)c1c(O)c3c(c(O)c1C2=O)C[C@@](O)(C(=O)CO)C[C@@H]3O[C@H]1C[C@H](N)[C@H](O)[C@H](C)O1,Activity,CCRF S-180 [1],Active
N=C(NCCC[C@H](NC(=O)c1cc2c(cn1)[nH]c1ccccc12)C(=O)OCc1ccccc1)N[N+](=O)[O-],Activity,[2],Dose-dependent effect
same,IC50,HL-60,15.3 to 74.1 µM
same,Drug uptake,[3],Tde
same,Activity,[4],10.8 to 116 nm
same,IC50,HeLa,15.3 to 74.1 µM
same,Activity,[5],28.6 to 88.9 nm
same,Activity,[6],43.9 to 176 nm
same,Activity,K562 [7],12.4%
same,Activity,[8],8 to 72.7 nm
same,Activity,Mus musculus [9],Active
same,IC50,HCT-8,15.3 to 74.1 µM
same,Activity,Mus musculus [10],Dose-dependent effect
same,Activity,K562 [11],73%
same,Activity,Mus musculus [12],Active
same,Activity,[13],Active
same,Ratio,CCRF S-180 [14],2
same,Activity,K562 [15],3.5%
same,Activity,K562 [16],60.7%
same,inhibition,Mus musculus [17],Active
same,Activity,K562 [18],Tde
same,Activity,[19],Dose-dependent effect
same,Activity,K562 [20],25.5%
same,Activity,[21],165 nm
same,Activity,[22],33.3 to 100 nm
same,Activity,Bos taurus [23],Dose-dependent effect
same,Ratio,Mus musculus [24],16.7
same,Activity,Plasma [25],102 to 109 nm
same,Activity,CCRF S-180 [26],Active
same,Activity,K562 [27],1.4%
same,Drug uptake,[28],Tde
same,Activity,Plasma [29],Dose-dependent effect
same,Activity,K562 [30],14.5%
same,Activity,Bos taurus [31],Dose-dependent effect
same,Activity,K562 [32],9%
same,Activity,Plasma [33],68.6 to 78.4 nm
same,IC50,A549,15.3 to 74.1 µM
same,Drug uptake,[34],Tde
same,Activity,Plasma [35],78.5 to 98 nm
same,Activity,Mus musculus [36],Dose-dependent effect
same,Activity,[37],inactive
same,Activity,CCRF S-180 [38],Dose-dependent effect
same,MED,CCRF S-180 [38],0.01 µmol/kg
same,IC50,SH-SY5Y,15.3 to 74.1 µM
same,IC50,HT-29,15.3 to 74.1 µM
same,Activity,Bos taurus [39],Dose-dependent effect
same,Activity,[40],44.4 to 111 nm
same,IC50,K562 [41],15.3 to 74.1 µM
same,Activity,[42],-14.2 mV
CC(=O)Oc1ccccc1C(=O)O,inhibition,Mus musculus [43],Active
